In US11230556B2 (Merck Sharp & Dohme Corp., priority 2016, dated 2022):

Each compound was assayed against T1, human M4 muscarinic acetylcholine receptor (Homo sapiens, UniProt P08173) (assay: human FLIPR-based M4 PAM assay (CHO-K1 cells with human M4 receptor and Gαqi5, calcium dye fluorescence, acetylcholine at 20% of maximum response)). Conditions: inflection point (IP) of 4 parameter logistic dose response curve, human M4 receptor + Gαqi5, FLIPR Tetra.
T1 construct: expressed in transfected cells; host or cells: CHO-K1
T1 sequence (P08173 1-479): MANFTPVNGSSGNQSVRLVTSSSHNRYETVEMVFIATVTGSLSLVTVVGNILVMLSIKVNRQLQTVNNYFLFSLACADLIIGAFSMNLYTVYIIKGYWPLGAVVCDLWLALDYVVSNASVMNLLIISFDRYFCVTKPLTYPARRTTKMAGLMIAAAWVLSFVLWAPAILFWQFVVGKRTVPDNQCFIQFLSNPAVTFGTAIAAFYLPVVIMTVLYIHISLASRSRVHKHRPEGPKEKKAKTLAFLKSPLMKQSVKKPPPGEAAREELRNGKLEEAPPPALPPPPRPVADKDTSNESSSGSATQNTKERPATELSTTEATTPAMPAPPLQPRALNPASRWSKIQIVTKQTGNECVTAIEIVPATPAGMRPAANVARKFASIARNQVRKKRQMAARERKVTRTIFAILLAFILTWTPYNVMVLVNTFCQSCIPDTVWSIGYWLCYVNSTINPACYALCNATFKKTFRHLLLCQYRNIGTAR
Assay type: cell-based
Experimental: In a typical experiment the M4 muscarinic acetylcholine receptor modulating activity of the compounds of the present invention was determined in accordance with the following experimental method. CHO-K1 cells stably transfected with human M4 receptor and chimeric G-protein Gαqi5 (Coward P, et al., Analytical Biochemistry, 270:242-248 (1999)) are thawed from liquid N2 storage, resuspended in growth medium, plated in black, clear bottom 384 well plates, and incubated 16-20 hours at 37° C., 5% CO2. On the day of assay, growth medium is removed, the cells are washed 2 times with wash buffer, and cells are incubated in dye loading buffer at 37° C., 5% CO2 for ˜1 hour. Following dye loading the cell plates are placed in a FLIPR Tetra instrument and while monitoring dye fluorescence (excitation […]), 10 uL of test substance at increasing concentrations is added, and fluorescence values are recorded for 4 min. Next, 10 uL of acetylcholine is added (final concentration calculated so as to achieve 20% of the maximum acetycholine response), and the fluorescence reading is continued for 3.5 min. In some cases, a third addition of acetylcholine (final concentration calculated to achieve 70% of the maximal acetylcholine response) is performed. The resulting dose response curves are fit to a 4 parameter logistic equation and the final result is determined as the inflection point (IP) of the curve
CHO-K1 cells stably transfected with human M4 receptor and chimeric G-protein Gαqi5 are thawed from liquid N2 storage, resuspended in growth medium, plated in black, clear bottom 384 well plates, and incubated 16-20 hours at 37° C., 5% CO2.
On the day of assay, growth medium is removed, the cells are washed 2 times with wash buffer, and cells are incubated in dye loading buffer at 37° C., 5% CO2 for ˜1 h. Following dye loading the cell plates are placed in a FLIPR Tetra instrument and while monitoring dye fluorescence ([…]), 10 uL of test substance at increasing concentrations is added, and fluorescence values are recorded for 4 min. Next, 10 uL of acetylcholine is added (final concentration calculated so as to achieve 20% of the maximum acetycholine response), and the fluorescence reading is continued for 3.5 min. In some cases, a third addition of acetylcholine (final concentration calculated to achieve 70% of the maximal acetylcholine response) is performed.

SMILES | EC50 [nM]
COc1ccc(OC2CCN(c3nc4c(cnn4C)cc3C)CC2)cn1 [Example 38, 6-(4-((6-methoxypyridin-3-yl)oxy)piperidin-1-yl)-1,5-dimethyl-1H-pyrazolo[3,4-b]pyridine] | 397
COCCC(=O)N1Cc2cc(C)c(N3CCC(Oc4ccc(OC)nc4)CC3)nc2C1 [Example 56, 3-methoxy-1-(2-(4-((6-methoxypyridin-3-yl)oxy)piperidin-1-yl)-3-methyl-5,7-dihydro-6H-pyrrolo[3,4-b]pyridin-6-yl)propan-1-one] | 221
COc1ccc(OC2CCN(c3nc4c(cc3C)CNC4)CC2)cn1 [Example 34, 2-(4-((6-Methoxypyridin-3-yl)oxy)piperidin-1-yl)-3-methyl-6,7-dihydro-5H-pyrrolo[3,4-b]pyridine] | 349
COc1ccc(OC2CCN(c3nc4c(cc3C)CN(C(=O)C3CC3)C4)CC2)cn1 [Example 41, cyclopropyl(2-(4-((6-methoxypyridin-3-yl)oxy)piperidin-1-yl)-3-methyl-5,7-dihydro-6H-pyrrolo[3,4-b]pyridin-6-yl)methanone] | 153
COc1ccc(OC2CCN(c3nc4nccn4cc3C)CC2)cn1 [Example 67, 7-(4-((6-methoxypyridin-3-yl)oxy)piperidin-1-yl)-6-methylimidazo[1,2-a]pyrimidine] | 765
COc1ccc(OC2CCN(c3nc4c(cc3C)CN(C(=O)C3CCO3)C4)CC2)cn1 (stereo not drawn) [Example 48, (2-(4-((6-methoxypyridin-3-yl)oxy)piperidin-1-yl)-3-methyl-5,7-dihydro-6H-pyrrolo[3,4-b]pyridin-6-yl)(oxetan-2-yl)methanone] | 167
COc1ccc(OC2CCN(c3nc4c(cc3C)CN(CCO)C4)CC2)cn1 [Example 37, 2-(2-(4-((6-methoxypyridin-3-yl)oxy)piperidin-1-yl)-3-methyl-5,7-dihydro-6H-pyrrolo[3,4-b]pyridin-6-yl)ethan-1-ol] | 133
Cc1cc2c(nc1N1CCC(Oc3ccccc3)CC1)CN(C(=O)C1CC1)C2 [Example 47, cyclopropyl(3-methyl-2-(4-phenoxypiperidin-1-yl)-5,7-dihydro-6H-pyrrolo[3,4-b]pyridin-6-yl)methanone] | 113
Cc1cc2c(nc1N1CCC(Oc3cccc(C#N)c3)CC1)CNS2(=O)=O [Example 76, 3-((1-(6-methyl-1,1-dioxido-2,3-dihydroisothiazolo[4,5-b]pyridin-5-yl)piperidin-4-yl)oxy)benzonitrile] | 221

Further compounds by falling EC50, results first:

EC50 [nM] | SMILES
112 | Cc1cn2c(=O)n(C)nc2nc1N1CCC(Oc2ccc3c(cnn3C)c2)CC1 [Example 9, 2,6-dimethyl-7-(4-((1-methyl-1H-indazol-5-yl)oxy)piperidin-1-yl)-[1,2,4]triazolo[4,3-a]pyrimidin-3(2H)-one]
71 | Cc1cc2c(=O)[nH]n(C)c2nc1N1CCC(Oc2ccc3cn[nH]c3c2)CC1 [Example 27, 6-(4-((1H-indazol-6-yl)oxy)piperidin-1-yl)-1,5-dimethyl-1,2-dihydro-3H-pyrazolo[3,4-b]pyridin-3-one]
62 | Cc1cn2c(=O)[nH]nc2nc1N1CC[C@@H](Oc2ccc3c(cnn3C)c2)[C@@H](F)C1 [Example 5, 7-((3S,4R)-3-fluoro-4-((1-methyl-1H-indazol-5-yl)oxy)piperidin-1-yl)-6-methyl-[1,2,4]triazolo[4,3-a]pyrimidin-3(2H)-one]
34 | COc1ccc(OC2CCN(c3nc4c(cc3C)C(=O)OC4CO)CC2)cn1 (stereo not drawn) [Example 33, 7-(Hydroxymethyl)-2-(4-((6-methoxypyridin-3-yl)oxy)piperidin-1-yl)-3-methylfuro[3,4-b]pyridin-5(7H)-one]
29 | Cc1cc2c(nc1N1CCC(Oc3ccc4c(c3)COC4)CC1)C1COCCN1C2=O (single isomer, unassigned) [Example 81A]
17 | Cc1cc2c(nc1N1CCC(Oc3ccccc3)CC1)COC2=O [Example 31, 3-methyl-2-(4-phenoxypiperidin-1-yl)furo[3,4-b]pyridin-5(7H)-one]
